# Results published in ChEMBL document CHEMBL1127540, “Three-dimensional pharmacophores from binding data” (J Med Chem, 1994).
# Starred links: 1 amine or outer side, 2 acyl side, 3 side chain; linkers in the order of their positions; H or OH if unused. Non-standard residues stand in square brackets, D forms with d. Residues, ends and D or L forms follow the SMILES beside them. X5 = O=C([C@H]1CCCN1C[C@H](O)[C@H](Cc1ccccc1)N[*:1])[*:2]; X2 = CC(C)C[C@H](N[*:1])[C@@H](O)CN1CCC[C@@H]1C(=O)[*:2]; X8 = O=C([C@H]1CCCN1C[C@H](Cc1ccccc1)N[*:1])[*:2]
# Biological target: Human immunodeficiency virus type 1 protease (Human immunodeficiency virus 1, UniProt Q72874)
# Assay: Binding affinity to HIV-1 protease
row,SMILES,Ki [nM]
1,CC[C@H](C)[C@H](NC(=O)[C@@H](C[C@H](O)[C@H](CC(C)C)NC(=O)[C@H](Cc1c[nH]cn1)NC(=O)[C@H](Cc1ccccc1)NC(=O)[C@H]1CCCN1C(=O)[C@H](Cc1c[nH]cn1)NC(=O)OC(C)(C)C)C(C)C)C(=O)N[C@@H](Cc1c[nH]cn1)C(=O)O,8.71
2,CC(C)(C)OC(=O)N[C@@H](Cc1ccccc1)[C@H](O)[C@H](O)[C@H](Cc1ccccc1)NC(=O)OC(C)(C)C,12
3,CC(C)(C)OC(=O)N[C@@H](Cc1ccccc1)[C@@H](O)CC(Cc1ccc(OCC(=O)O)cc1)C(=O)N[C@@H]1c2ccccc2C[C@H]1O (stereo partly drawn),0.339
4,NC(=O)C[C@H](NC(=O)OCc1ccccc1)C(=O)N[C@@H](Cc1ccccc1)C(=O)C(F)(F)CCc1ccccc1,2.09
5,CC[C@H](C)[C@H](NC(=O)[C@H](C(C)C)[C@H](O)[C@H](O)[C@H](CC(C)C)NC(=O)[C@H](Cc1c[nH]cn1)NC(=O)[C@H](Cc1ccccc1)NC(=O)OC(C)(C)C)C(=O)NCc1ccccn1,501
6,CC[C@H](C)[C@H](NC(=O)[C@H](C(C)C)[C@@H](O)[C@H](O)[C@H](CC(C)C)NC(=O)[C@H](Cc1c[nH]cn1)NC(=O)[C@H](Cc1ccccc1)NC(=O)OC(C)(C)C)C(=O)NCc1ccccn1,28.2
7,CC(C)[C@H](NC(=O)OCc1ccccc1)C(=O)N[C@@H](Cc1ccccc1)[C@@H](O)[C@@H](CC(=O)[C@H](NC(=O)OCc1ccccc1)C(C)C)Cc1ccccc1,3.72
8,CC(C)[C@H](NC(=O)OCc1ccccc1)C(=O)N[C@@H](Cc1ccccc1)[C@@H](O)[C@H](O)[C@H](Cc1ccccc1)NC(=O)OCc1ccccc1,0.219
9,CC(C)(C)OC(=O)N[C@@H](Cc1ccccc1)[C@@H](O)CC(=O)N[C@@H](CCC(=O)O)C(=O)N[C@@H](Cc1ccccc1)C(=O)O,63.1
10,CCC(C)CNC(=O)[C@H](C(C)C)[C@@H](O)[C@H](O)[C@H](CC(C)C)NC(=O)[C@H](Cc1c[nH]cn1)NC(=O)[C@H](Cc1ccccc1)NC(=O)OC(C)(C)C (stereo partly drawn),363
11,CC(C)(C)OC(=O)N[C@H](Cc1ccccc1)[C@@H](O)CC(=O)N[C@@H](CCC(=O)O)C(=O)N[C@@H](Cc1ccccc1)C(=O)O,7080
12,CC(C)[C@H](NC(=O)OCc1ccccc1)C(=O)N[C@@H](Cc1ccccc1)[C@H](O)[C@@H](O)[C@H](Cc1ccccc1)NC(=O)[C@@H](NC(=O)OCc1ccccc1)C(C)C,0.38
13,CC(C)(C)OC(=O)N[C@@H](Cc1ccccc1)[C@H](O)C(=O)N[C@@H](CCC(=O)O)C(=O)N[C@@H](Cc1ccccc1)C(=O)O,3310
14,CC(C)[C@H](NC(=O)OCc1ccccc1)C(=O)N[C@@H](Cc1ccccc1)C(=O)C(F)(F)CCc1ccccn1,1.41
15,CC(C)(C)OC(=O)N[C@@H](Cc1ccccc1)[C@H](O)CC(=O)N[C@@H](CCC(=O)O)C(=O)N[C@@H](Cc1ccccc1)C(=O)O,3980
16,CC[C@H](C)[C@H](NC(=O)[C@H]1CCCN1C(=O)[C@H](CO)NC(=O)[C@@H](NC(=O)[C@@H]1CCCN1C(=O)[C@H](Cc1ccccc1)NC(=O)[C@H](CC(N)=O)NC(=O)[C@H](CC(C)C)NC(=O)[C@@H](NC(=O)[C@@H](N)CS)[C@@H](C)O)[C@@H](C)CC)C(=O)O,70.8
17,CC(C)[C@H](NC(=O)OCc1ccccn1)C(=O)N[C@@H](Cc1ccccc1)C(=O)C(F)(F)CCc1ccccc1,2.19
18,CC[C@H](C)[C@H](NC(=O)[C@H](Cc1ccccc1)NC(=O)C[C@H](O)[C@H](Cc1ccccc1)NC(=O)OC(C)(C)C)C(=O)N[C@@H](Cc1ccccc1)C(=O)OC,0.603
19,CC[C@H](C)[C@H](NC(=O)[C@H](C(C)C)[C@@H](O)[C@H](O)[C@H](CC(C)C)NC(=O)OCc1ccccc1)C(=O)NCc1ccccn1,5.01

row,SMILES,Ki [nM]
1,CC(C)[C@H](NC(=O)OCc1ccccc1)C(=O)N[C@@H](Cc1ccccc1)[C@H](O)[C@H](O)[C@H](Cc1ccccc1)NC(=O)[C@@H](NC(=O)OCc1ccccc1)C(C)C,0.219
2,CC(=O)N[C@H](C(=O)C[C@@H](Cc1ccccc1)[C@H](O)[C@H](Cc1ccccc1)NC(=O)[C@@H](NC(C)=O)C(C)C)C(C)C,12
3,CC[C@H](C)[C@H](NC(=O)OCc1ccccc1)C(=O)N[C@@H](Cc1ccccc1)[C@@H](O)[C@@H](CC(=O)[C@H](NC(=O)OCc1ccccc1)[C@@H](C)CC)Cc1ccccc1,4.9
4,COC(=O)[C@@H](NC(=O)[C@@H](NC(=O)CC[C@H](O)[C@H](Cc1ccccc1)NC(=O)[C@H](C)NC(=O)OCc1ccccc1)C(C)C)C(C)C,120
5,CC(C)(C)OC(=O)N[C@H](Cc1ccccc1)[C@H](O)CC(=O)N[C@@H](CCC(=O)O)C(=O)N[C@@H](Cc1ccccc1)C(=O)O,3020
6,CCC(C)CNC(=O)[C@H](C(C)C)[C@@H](O)[C@H](O)[C@H](CC(C)C)NC(=O)OCc1ccccc1 (stereo partly drawn),363
7,CC(=O)N[C@H](C(=O)N[C@H](C(=O)C[C@@H](Cc1ccccc1)[C@H](O)[C@H](Cc1ccccc1)NC(=O)[C@@H](NC(=O)[C@@H](NC(C)=O)C(C)C)C(C)C)C(C)C)C(C)C,10
8,CC[C@H](C)[C@H](NC(=O)[C@@H]1CCCN1C[C@@H](CC(=O)[C@H](CC(N)=O)NC(=O)[C@H](CCC(N)=O)NC(=O)[C@H](CO)NC(=O)[C@@H](N)C(C)C)Cc1ccccc1)C(=O)N[C@H](C(=O)O)C(C)C,3550
9,CC(C)[C@H](NC(=O)NCc1ccccn1)C(=O)N[C@@H](Cc1ccccc1)C(=O)C(F)(F)CCc1ccccc1,2.88
10,CC(C)[C@H](NC(=O)CNC(=O)OCc1ccccc1)C(=O)N[C@@H](Cc1ccccc1)C(=O)C(F)(F)CCc1ccccc1,1
11,CC[C@H](C)[C@H](NC(=O)[C@@H](C[C@H](O)C(CC1CCCCC1)NC(=O)[C@@H](N)C(C)C)C(C)C)C(=O)NCc1ccccn1 (stereo partly drawn),70.8
12,CC(C)(C)OC(=O)N[C@@H](Cc1ccccc1)[C@@H](O)[C@H](O)[C@H](Cc1ccccc1)NC(=O)OC(C)(C)C,39.8
13,CC(C)(C)OC(=O)N[C@@H](Cc1ccccc1)[C@H](O)[C@@H](O)[C@H](Cc1ccccc1)NC(=O)OC(C)(C)C,282
14,CC[C@H](C)[C@H](NC(=O)[C@H]1CCCN1C[C@H](O)[C@H](CC(C)C)NC(=O)[C@H](CC(N)=O)NC(=O)[C@H](CC(C)C)NC(C)=O)C(=O)N[C@H](C(=O)OC)C(C)C (Ac-LN[X2]IV-OMe),20.9
15,CC(=O)N[C@@H](CO)C(=O)N[C@@H](C)C(=O)N[C@@H](C)C(=O)N[C@@H](Cc1ccccc1)CN1CCC[C@@H]1C(=O)N[C@H](C(=O)N[C@H](C(N)=O)C(C)C)C(C)C (Ac-SAA[X8]VV-NH2),38000
16,CC[C@H](C)[C@H](NC(=O)[C@H]1CCCN1C[C@H](O)[C@H](CC(C)C)NC(=O)[C@H](CC(N)=O)NC(=O)[C@H](CC(C)C)NC(=O)[C@H](CO)NC(C)=O)C(=O)OC (Ac-SLN[X2]I-OMe),977
17,CC[C@H](C)[C@H](NC(=O)[C@H]1CCCN1C[C@H](O)[C@H](CC(C)C)NC(=O)[C@H](CC(N)=O)NC(=O)[C@H](CC(C)C)NC(=O)[C@H](CO)NC(C)=O)C(=O)N[C@H](C(=O)OC)C(C)C (Ac-SLN[X2]IV-OMe),11
18,CC[C@H](C)[C@H](NC(=O)[C@H]1CCCN1C[C@H](O)[C@H](Cc1ccccc1)NC(=O)[C@H](CC(N)=O)NC(=O)[C@H](CC(C)C)NC(=O)[C@H](CO)NC(C)=O)C(=O)OC (Ac-SLN[X5]I-OMe),417
19,CC[C@H](C)[C@H](NC(=O)[C@H]1CCCN1C[C@H](O)[C@H](Cc1ccccc1)NC(=O)[C@H](CC(N)=O)NC(=O)[C@H](CC(C)C)NC(=O)[C@H](CO)NC(C)=O)C(=O)N[C@H](C(=O)OC)C(C)C (Ac-SLN[X5]IV-OMe),0.24
